“And” between values parts separate entries of the source, which are not always exact repeats. Equal entries are not always repeated. “Also recorded” adds a separate entry of the source. Where two headings read alike, the source gives them in different places. One block for each compound: values may come before it. Ends that are not written are not given here.
Tests used:
[1] = target: T1, mammalian ribonucleotide reductase (Bos taurus, UniProt Q32LP1); assay: Peptide inhibition of mammalian ribonucleotide reductase activity; type: biochemical; conditions: for Fold decrease in RI relative to N-AcFTLDADF / % RI (relative inhibitory potency, (IC50 AcFTLDADF)/(IC50 peptide analog)) / IC50: Table 8; for % RI (relative inhibitory potency, (IC50 AcFTLDADF)/(IC50 peptide analog)): mean and average deviation of 2-3 determinations, others single; for IC50: Dixon plots of 4-6 concentration points, ranges are two independent determinations
T1 sequence (Q32LP1 1-791): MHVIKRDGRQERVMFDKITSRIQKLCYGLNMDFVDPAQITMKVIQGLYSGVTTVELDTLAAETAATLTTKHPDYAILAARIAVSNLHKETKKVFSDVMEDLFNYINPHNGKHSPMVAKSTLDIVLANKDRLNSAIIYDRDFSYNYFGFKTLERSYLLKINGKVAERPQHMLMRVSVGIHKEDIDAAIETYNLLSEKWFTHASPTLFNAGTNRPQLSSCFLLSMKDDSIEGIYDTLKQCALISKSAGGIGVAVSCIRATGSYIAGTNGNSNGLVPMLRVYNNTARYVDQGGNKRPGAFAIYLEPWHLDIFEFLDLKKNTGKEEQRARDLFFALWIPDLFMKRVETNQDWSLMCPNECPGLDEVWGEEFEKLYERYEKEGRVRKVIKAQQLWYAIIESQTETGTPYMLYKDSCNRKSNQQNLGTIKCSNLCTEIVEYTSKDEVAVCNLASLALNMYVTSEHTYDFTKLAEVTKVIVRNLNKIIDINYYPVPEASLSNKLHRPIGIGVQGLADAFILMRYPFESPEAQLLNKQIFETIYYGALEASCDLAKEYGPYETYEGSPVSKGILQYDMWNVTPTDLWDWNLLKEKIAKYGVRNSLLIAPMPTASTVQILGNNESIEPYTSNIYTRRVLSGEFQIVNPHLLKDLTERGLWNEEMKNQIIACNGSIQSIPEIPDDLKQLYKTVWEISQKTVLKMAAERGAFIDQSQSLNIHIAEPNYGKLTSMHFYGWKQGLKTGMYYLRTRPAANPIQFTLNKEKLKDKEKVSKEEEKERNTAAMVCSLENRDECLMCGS
Description: All three methods yielded acceptable results, with the following limitations. Method 1 is useful for the assay of CDP to dCDP and ADP to dADP conversions, but is not useful for the assay of GDP reduction. It is also sensitive to large changes in the nucleotide composition of the assay medium. […] Method 2 is the easiest to perform on purified enzymes, and can be used with all four NDPs as substrates, but is difficult to use with crude enzyme, largely because contaminating phosphatase activities can skew results. Method 3 is usable with all four NDPs, but is also somewhat sensitive to large changes in the nucleotide composition of the assay medium and requires column separation at 4° C.

RR [2] = target: T2, RR (Mus musculus, UniProt P07742); assay: Biological Evaluation of Compound (8): RR activity; type: biochemical
T2 sequence (P07742 1-792): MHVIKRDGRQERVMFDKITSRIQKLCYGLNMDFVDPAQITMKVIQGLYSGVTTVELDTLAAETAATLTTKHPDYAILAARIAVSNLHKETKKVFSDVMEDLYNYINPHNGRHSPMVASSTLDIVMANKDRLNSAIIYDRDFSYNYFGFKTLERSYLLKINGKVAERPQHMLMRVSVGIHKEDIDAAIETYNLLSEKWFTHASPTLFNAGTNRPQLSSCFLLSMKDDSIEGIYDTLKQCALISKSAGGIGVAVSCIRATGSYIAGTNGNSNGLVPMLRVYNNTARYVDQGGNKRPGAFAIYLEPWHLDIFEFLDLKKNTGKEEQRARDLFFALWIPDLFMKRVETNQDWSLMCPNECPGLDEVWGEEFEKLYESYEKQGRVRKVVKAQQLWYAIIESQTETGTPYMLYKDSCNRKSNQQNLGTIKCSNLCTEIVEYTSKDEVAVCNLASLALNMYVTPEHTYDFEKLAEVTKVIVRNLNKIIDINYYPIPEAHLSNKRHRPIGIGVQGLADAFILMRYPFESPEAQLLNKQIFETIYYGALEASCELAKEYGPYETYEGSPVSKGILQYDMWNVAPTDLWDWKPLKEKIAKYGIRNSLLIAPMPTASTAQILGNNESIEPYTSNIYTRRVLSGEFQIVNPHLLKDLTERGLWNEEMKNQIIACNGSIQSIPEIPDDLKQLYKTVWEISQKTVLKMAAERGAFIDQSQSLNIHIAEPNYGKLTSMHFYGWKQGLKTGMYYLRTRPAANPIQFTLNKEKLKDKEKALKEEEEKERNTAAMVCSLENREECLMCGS
Description: (§1) Standard assays of RR activity used in the studies presented herein involve the conversion of [^3 H]-ribonucleoside diphosphate (NDP) to [^3 H]-deoxyribonucleoside diphosphate (dNDP), using dithiothreitol as the external reductant. Three methods were examined: Method 1 (Steeper et al., 1970, Anal. Biochem. 34:123-130), involving the conversion of diphosphates to nucleosides by enzymatic digestion, followed by the separation of deoxynucleoside from nucleoside on Dowex-1-borate columns; Method 2 (Moore et al., 1974, Biochemistry 13:2904-2907), involving the direct separation of dNDP from NDP on aminophenylboronate columns; Method 3 (Sato et al., 1983, Anal. Biochem. 135:431-435) involving the conversion of diphosphates to nucleosides by enzymatic digestion, followed by the separation of deoxynucleoside from nucleoside on polyethyleneimine-cellulose columns.
All three methods yielded acceptable results, with the following limitations. Method 1 is useful for the assay of CDP to dCDP and ADP to dADP conversions, but is not useful for the assay of GDP reduction. It is also sensitive to large changes in the nucleotide composition of the assay medium. Thus, it is quite useful for standard assays (purifications, tests of peptide inhibition), but difficult to apply when concentrations and substrate are widely varied. […]

E. coli RR = E. coli RR (Escherichia coli, UniProt P00452); conditions: cited from earlier work
RR [3] = target: T2, RR; assay: Inhibition of RR by Compound 23; type: biochemical
Description: as §1
All three methods yielded acceptable results, with the following limitations. Method 1 is useful for the assay of CDP to dCDP and ADP to dADP conversions, but is not useful for the assay of GDP reduction. It is also sensitive to large changes in the nucleotide composition of the assay medium. Thus, it is quite useful for standard assays (purifications, tests of peptide inhibition), but difficult to apply when concentrations and substrate are widely varied. Method 2 is the easiest to perform on purified enzymes, and can be used with all four NDPs as substrates, but is difficult to use with crude enzyme, largely because contaminating phosphatase activities can skew results. Method 3 is usable with all four NDPs, but is also somewhat sensitive to large changes in the nucleotide composition of the assay medium and requires column separation at 4° C.

mouse R1 = target: T3, mouse R1 (Mus musculus, UniProt P07742); conditions: cited from earlier work
T3 construct: made in house; host or cells: R1: Hi5 or Sf9 insect cells (baculovirus); R2: E. coli
T3 sequence (P07742 1-792): T2 sequence (P07742 1-792)

E. coli RR, sequence (P00452 whole entry): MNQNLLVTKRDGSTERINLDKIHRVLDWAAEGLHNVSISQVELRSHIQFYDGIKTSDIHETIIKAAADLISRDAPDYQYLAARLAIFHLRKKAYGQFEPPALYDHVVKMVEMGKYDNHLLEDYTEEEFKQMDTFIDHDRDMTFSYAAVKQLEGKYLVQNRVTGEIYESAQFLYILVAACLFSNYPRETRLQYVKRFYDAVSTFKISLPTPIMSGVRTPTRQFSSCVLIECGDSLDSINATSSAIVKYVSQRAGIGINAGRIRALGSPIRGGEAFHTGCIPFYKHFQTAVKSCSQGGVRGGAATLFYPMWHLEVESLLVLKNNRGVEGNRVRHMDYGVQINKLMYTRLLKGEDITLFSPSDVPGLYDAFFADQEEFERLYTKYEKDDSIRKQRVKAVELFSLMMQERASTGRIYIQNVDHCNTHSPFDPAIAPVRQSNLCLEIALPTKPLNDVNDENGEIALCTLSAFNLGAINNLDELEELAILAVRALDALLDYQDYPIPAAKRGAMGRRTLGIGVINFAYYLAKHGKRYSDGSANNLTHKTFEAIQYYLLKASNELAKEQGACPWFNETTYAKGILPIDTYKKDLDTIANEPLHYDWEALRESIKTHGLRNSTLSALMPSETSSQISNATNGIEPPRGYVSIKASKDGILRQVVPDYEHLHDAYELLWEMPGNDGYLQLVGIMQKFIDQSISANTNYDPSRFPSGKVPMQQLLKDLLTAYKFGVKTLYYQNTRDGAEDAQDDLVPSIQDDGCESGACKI

Fold decrease in RI relative to N-AcFTLDADF [1]: three to four | % RI (relative inhibitory potency, (IC50 AcFTLDADF)/(IC50 peptide analog)) [1]: 23 ± 1.0%
Compound: Ac-FTLDANF [Ac-FTLDANF]

Compound: Ac-FTLDADF [Ac-FTLDADF, Acetyl-Phe-Thr-Leu-Asp-Ala-Asp-Phe]
IC50 ([1]; read-out: IC50): 8 to 20 µM | RR Activity (RR [2]; compound at 10 μM): 0.39 ± 0.07 | RR Activity (RR [2]; compound at 66 μM): 0.12 | IC50 (E. coli RR; E. coli R1 protein / RR): > 1000 µM | Inhibition of E. coli RR (E. coli RR): at best a very poor inhibitor of eRR; also recorded: failure to significantly inhibit E. coli RR up to concentrations of 1 mM

Residual Relative Activity (RR [3]; 30 μM Compound 23): 86 ± 8 percentage | Residual Relative Activity (RR [3]; 100 μM Compound 23): 73 ± 6 percentage | Residual Relative Activity (RR [3]; 300 μM Compound 23): 64 ± 6 percentage | Residual Relative Activity (RR [3]; 500 μM Compound 23): 48 ± 4 percentage | Residual Relative Activity (RR [3]; 1000 μM Compound 23): 32 ± 6 percentage | Fold decrease in RI relative to N-AcFTLDADF [1]: three to four
Compound: CC(=O)N[C@@H](Cc1ccccc1)C(=O)NC[C@@H]1O[C@@H]([C@@H](C)C(=O)N[C@@H](CC(=O)O)C(=O)N[C@@H](Cc2ccccc2)C(=O)O)[C@@H](OCC(=O)O)C[C@H]1OCC(C)C [Compound 23]

Fold decrease in RI relative to N-AcFTLDADF [1]: five to ten | % RI (relative inhibitory potency, (IC50 AcFTLDADF)/(IC50 peptide analog)) [1]: 7%
Compound: Ac-YTLDADF [Ac-YTLDADF]
Fold lower affinity for mR1 than AcFTLDADF (mouse R1): 15 fold

% RI (relative inhibitory potency, (IC50 AcFTLDADF)/(IC50 peptide analog)) [1]: 4.9 ± 0.60%
Compound: Ac-FTADADF [Ac-FTADADF]

% RI (relative inhibitory potency, (IC50 AcFTLDADF)/(IC50 peptide analog)) [1]: 35%
Compound: Ac-FTVDADF [Ac-FTVDADF]

RR inhibition compared with AcFTLDADF [1]: comparable to AcFTLDADF
Compound: FA-DAP-C(N)FTLDADF: folate-peptide conjugate: γ-1,5-diaminopentane folate condensate coupled to thiol of NCFTLDADF via sulfo-MBS (not fully specified (residue 2))

Fold decrease in RI relative to N-AcFTLDADF [1]: over 40 fold | % RI (relative inhibitory potency, (IC50 AcFTLDADF)/(IC50 peptide analog)) [1]: 3% and < 3%
Compound: Ac-FTLDADL [Ac-FTLDADL]

% RI (relative inhibitory potency, (IC50 AcFTLDADF)/(IC50 peptide analog)) [1]: 35%
Compound: Ac-FTLDLDF [Ac-FTLDLDF]

IC50 ([1]; read-out: IC50): 35 to 40 µM
Compound: Ac-FALDADF [Ac-FALDADF, Acetyl-Phe-Ala-Leu-Asp-Ala-Asp-Phe]

IC50 ([1]; read-out: IC50): 9 to 15 µM
Compound: Ac-NSFTLDADF

% RI (relative inhibitory potency, (IC50 AcFTLDADF)/(IC50 peptide analog)) [1]: 2.1%
Compound: Ac-FTLDADFAA

Compound: Ac-FSLDADF [Ac-FSLDADF, Acetyl-Phe-Ser-Leu-Asp-Ala-Asp-Phe]
IC50 [1]: 40 to 42 µM

IC50 ([1]; read-out: IC50): 412 µM
Compound: Ac-FLDADF [Ac-F-LDADF]

From US6030942A, “Peptides peptide analogs peptidomimetics and other small molecules useful for inhibiting the activity of ribonucleotide reductase” (The Trustees of the University of Pennsylvania, priority 1998, dated 2000)
